Assay results reported in patent US6352960B1, “Controlling agent for agricultural or horticultural bacterial disease” (Meiji Seika Kaisha, Ltd., priority 1998, dated 2002).
Where a name gives a salt, the structure may show the parent alone.

How the values were obtained:
genus Xanthomonas = details: from Japanese Patent Publication No. Sho 43-27335; cited from earlier work
genus Pseudomonas = details: from Japanese Patent Publication No. Sho 43-27335; cited from earlier work
[1] = test system: Japanese apricot canker bacterium (Pseudomonas syringae pv. morsprunorum); experiment: in vitro antibacterial test on PDA culture medium; type: cell-based; design: key to growth of bacteria: +++: Colonies grew well; ++: Growth was slightly suppressed; +: Growth was strongly suppressed but proliferation was observed; −: No proliferation was observed; details: for growth of bacteria: 21° C., after 3 days
Experimental: (§1) Each agent was dissolved in sterilized water and added to PDA culture medium (Nissui Seiyaku Co., Ltd.) and Japanese apricot canker bacterium (Pseudomonas syringae pv. morsprunorum), vegetables' soft rot disease bacterium (Erwinia carotovora sub-sp. cartovora), and citrus canker bacterium (Xanthomonas campestris pv. citri) were inoculated.
(§2) The Japanese apricot canker bacterium was cultivated at 21° C., the vegetables' soft rot disease bacterium and citrus canker bacterium were cultivated at 28° C. After 3 days from the start of cultivation, the growth of bacteria was monitored.

[2] = test system: citrus canker bacterium (Xanthomonas campestris pv. citri); experiment: in vitro antibacterial test on PDA culture medium; type: cell-based; design: key to growth of bacteria: +++: Colonies grew well; ++: Growth was slightly suppressed; +: Growth was strongly suppressed but proliferation was observed; −: No proliferation was observed; details: for growth of bacteria: 28° C., after 3 days
Experimental: as §1, §2

[3] = test system: vegetables' soft rot disease bacterium (Erwinia carotovora sub-sp. cartovora); experiment: in vitro antibacterial test on PDA culture medium; type: cell-based; design: key to growth of bacteria: +++: Colonies grew well; ++: Growth was slightly suppressed; +: Growth was strongly suppressed but proliferation was observed; −: No proliferation was observed; details: for growth of bacteria: 28° C., after 3 days
Experimental: as §1, §2

Celery cabbage soft rot = experiment: Controlling effect on Celery cabbage soft rot, field test; type: in vivo; details: sprayed 3 times at 7-day intervals
Experimental: (§3) Preventive value=(1−disease severity of treated lot/disease severity of non-treated lot)×100
(§4) (Disease severity may be replaced by degree of damage or ratio of damage.)
Commercially available Agrepto wettable powder containing 25% of streptomycin sulfate (20% as streptomycin) or commercially available Iminoctadine ABS salt [trade name: Bellkute wettable powder (40%)] was diluted to a predetermined concentration and tested. The preparations produced according to Preparation Examples 1 and 3 were also diluted to predetermined concentrations. In early August, Celery cabbages were sown in 5.2 m^2 per lot in triplicate. From 20 September when the plant reached 10-leaf stage, the predetermined agents were continually sprayed 3 times with intervals of 7 days. In late October, the disease severity and degree of damage of Celery cabbage soft rot were investigated using 4-rank indices.
1: Only a portion of outer leaves damaged;
2: A portion of outer leaves and head portion damaged; and
3: Most part of head portion damaged.
Degree of damage=Σ(Index×the number of individuals)÷(the number of individuals searched×3)×100

[4] = test system: Japanese apricot bacterial canker; experiment: Controlling effect on Japanese apricot bacterial canker (1), field trees, spray; type: in vivo; details: sprayed four times at 10-day intervals
Experimental: as §3
Commercially available Agrepto wettable powder containing 25% of streptomycin sulfate (20% as streptomycin) or commercially available Iminoctadine ABS salt [trade name: Bellkute wettable powder (40%)] was diluted to a predetermined concentration and tested. Also, the preparation produced according to Preparation Example 2 was diluted to a predetermined concentration and tested.
Young 5-year old Japanese apricot trees which frequently suffered from Japanese apricot bacterial canker in the preceding year, were tested. Predetermined agents were continually sprayed four times with intervals of 10 days starting from early April. In May, the disease severity of Japanese apricot bacterial canker was searched on 100 fruits per tree for total 5 trees in each lot and the results were evaluated by 5-rank indices.
The damaged fruits were searched and disease severity and preventive value were calculated using the indices and equation below.
2: Medium=6 to 15 lesions
6: Extreme=31 or more lesions or with cracks
Disease severity=Σ(Index×The number of damaged fruits per degree)÷(6×The number of tested fruits)×100

[5] = test system: Japanese apricot canker bacterium (Pseudomonas syringae pv. morsprunorum); experiment: Controlling effect on Japanese apricot bacterial canker (2), potted seedlings, spray inoculation; type: in vivo; details: leaf spray before inoculation, after 7 days
Experimental: as §3
Japanese apricot seedlings rested for the winter season in the open field were cut to the height of 60 cm and transplanted to 1/5000 a Wagner pots and allowed to sprout and develop leaves in a greenhouse were tested. After giving fine bruises to the leaves with Carborandum, water was sprayed sufficiently to flow away the Carborandum. After air drying, the agents diluted to predetermined concentrations with water were sprayed onto the leaves, which were air dried again. Japanese apricot canker bacterium (Pseudomonas syringae pv. morsprunorum) preliminarily cultivated in PPG medium (200 g of potato, 3 g of disodium phosphate (dodecahydrate), 0.5 g of dikalium phosphate, 5 g of peptone, 3 g of sodium chloride, 5 g of glucose, 1 L of distilled water) was inoculated by spraying together with the medium. The inoculated plants were placed under controlled humid conditions (temperature 20° C., humidity 99% to 100%) for 40 hours and then transferred to a greenhouse to allow the disease to emerge. After 7 days, the lesion area in each lot was measured and disease severity and preventive value were calculated according to the following indices.
1: Several lesions on the leaves of one branch;
2: The damaged area was less than ¼ of the total area of the leaves on one branch;
3: The damaged area was from ¼ to less than ½ of the total area of the leaves on one branch;
4: The damaged area was from ½ to less than ⅔ of the total area of the leaves on one branch; and
5: The damaged area was ⅔ or more of the total area of the leaves on one branch.
Disease severity=Σ(Index×The number of data)÷(Total number of data×5)×100

[6] = test system: citrus canker bacterium (Xanthomonas campestris pv. citri); experiment: Controlling effect on citrus canker, pot-grown Watson pomelo leaves; type: in vivo; details: 20 leaves, after 1 month
Experimental: as §3, §4
Commercially available Agrepto wettable powder containing 25% of streptomycin sulfate (20% as streptomycin) or commercially available Iminoctadine ABS salt [trade name: Bellkute wettable powder (40%)] was diluted to a predetermined concentration and tested. The preparations produced according to Preparation Examples 2 and 4 were also diluted to predetermined concentrations. 20 new leaves of pot-grown Watson pomelo were tested for each of the preparations. After wounding the leaves with a needle, each predetermined agent solution was sprayed thereon and the leaves were air dried. Then, citrus canker bacterium (Xanthomonas campestris pv. citri) was inoculated with the density of 1×10^6 cells. Thereafter, the trees were put into controlled cultivation in a greenhouse. After 1 month, the emergence of citrus canker was investigated.

For N=C(N)NCCCCCCCCCCNCCCCCCCCCCNC(=N)N.O=S(=O)(O)O [bis (10-guanidinodecyl) amine sulfate], the “in vitro antibacterial activity against plant pathogenic bacteria” value (shortened to “in vitro antibacterial activity”) (genus Xanthomonas) is listed as “revealed to have in vitro antibacterial activity” and the “in vitro antibacterial activity” value (genus Pseudomonas) is listed as “revealed to have in vitro antibacterial activity”.
With CCn1cc(C(=O)O)c(=O)c2cc3c(cc21)OCO3 [Oxolinic acid, oxolinic acid] the growth of bacteria ([1]; 1 ppm in PDA medium) was “++”, the growth of bacteria ([1]; 10 ppm in PDA medium) was “−” and the growth of bacteria ([2]; 1 ppm in PDA medium) was “+++”. The growth of bacteria ([2]; 10 ppm in PDA medium) was “++”, the growth of bacteria ([3]; 1 ppm in PDA medium) was “−” and the growth of bacteria ([3]; 10 ppm in PDA medium) was “−”. For the same compound, the Degree of damage (Celery cabbage soft rot; 100 ppm) was 3.3, the Preventive value (Celery cabbage soft rot; 100 ppm) was 85 and the “The number of individuals damaged” value (Celery cabbage soft rot; 100 ppm) was 4.
In the case of N=C(N)NCCCCCCCCNCCCCCCCCNC(=N)N.O=S(=O)(O)O [bis (8-guanidiooctyl) amine sulfate], the “in vitro antibacterial activity” value (genus Xanthomonas) is given as “no activity” and the “in vitro antibacterial activity” value (genus Pseudomonas) is given as “no activity”.
In the case of [H]/N=C(/N)N[C@H]1[C@H](O)[C@@H](O)[C@H](O[C@@H]2O[C@@H](C)[C@](O)(C=O)[C@H]2O[C@@H]2O[C@@H](CO)[C@H](O)[C@@H](O)[C@@H]2NC)[C@@H](N/C(N)=N\[H])[C@@H]1O [Streptomycin sulfate, streptomycin sulfate], the growth of bacteria ([1]; 1 ppm in PDA medium) is reported as “++”, the growth of bacteria ([1]; 10 ppm in PDA medium) is reported as “+” and the growth of bacteria ([1]; 100 ppm in PDA medium) is reported as “−”. For the same compound, the growth of bacteria ([2]; 1 ppm in PDA medium) was “++”, the growth of bacteria ([2]; 10 ppm in PDA medium) was “+” and the growth of bacteria ([2]; 100 ppm in PDA medium) was “−”. The growth of bacteria ([3]; 1 ppm in PDA medium) was “+”, the growth of bacteria ([3]; 10 ppm in PDA medium) was “−” and the growth of bacteria ([3]; 100 ppm in PDA medium) was “−”. For the same compound, the Disease severity ([4]; 125 ppm) was 1.6, the Preventive value ([4]; 125 ppm) was 57 and the “The number of damaged fruits” value ([4]; 125 ppm) was 23. The Disease severity ([5]; 125 ppm) was 24, the Preventive value ([5]; 125 ppm) was 67 and the Preventive value ([6]; 62.5 ppm) was 60. The “Ratio of suffering leaves” value ([6]; 62.5 ppm) was 40, the “The number of suffering leaves” value ([6]; 62.5 ppm) was 8 and the Preventive value ([6]; 125 ppm) was 80. For the same compound, the “Ratio of suffering leaves” value ([6]; 125 ppm) was 20, the “The number of suffering leaves” value ([6]; 125 ppm) was 4 and the Preventive value ([6]; 500 ppm) was 95. For the same compound, the “Ratio of suffering leaves” value ([6]; 500 ppm) was 5, the “The number of suffering leaves” value ([6]; 500 ppm) was 1 and the Degree of damage (Celery cabbage soft rot; 125 ppm) was 4.6. For the same compound, the Preventive value (Celery cabbage soft rot; 125 ppm) was 79 and the “The number of individuals damaged” value (Celery cabbage soft rot; 125 ppm) was 10.
For Cl.N=C(N)NCCCCCCCCCCCCNCCCCCCCCCCCCNC(=N)N [bis (12-guanidinododecyl) amine hydrochloride], the “in vitro antibacterial activity” value (genus Xanthomonas) is listed as “revealed to have in vitro antibacterial activity” and the “in vitro antibacterial activity” value (genus Pseudomonas) is listed as “revealed to have in vitro antibacterial activity”.
In the case of N=C(N)NCCCCCCCCNCCCCCCCCNC(=N)N [Iminoctadine ABS salt, bis(8-guanidinooctyl)amine], the growth of bacteria ([1]; 1 ppm in PDA medium) is reported as “+++”, the growth of bacteria ([1]; 10 ppm in PDA medium) is reported as “+++” and the growth of bacteria ([1]; 100 ppm in PDA medium) is reported as “++”. For the same compound, the “suppression of growth in vitro” value ([1]; even added at 100 ppm) was “did not suppress the growth”, the growth of bacteria ([2]; 1 ppm in PDA medium) was “+++” and the growth of bacteria ([2]; 10 ppm in PDA medium) was “+++”. For the same compound, the growth of bacteria ([2]; 100 ppm in PDA medium) was “+++”, the “suppression of growth in vitro” value ([2]; even added at 100 ppm) was “did not suppress the growth” and the growth of bacteria ([3]; 1 ppm in PDA medium) was “+++”. For the same compound, the growth of bacteria ([3]; 10 ppm in PDA medium) was “+++”, the growth of bacteria ([3]; 100 ppm in PDA medium) was “+++” and the “suppression of growth in vitro” value ([3]; even added at 100 ppm) was “did not suppress the growth”. For the same compound, the Disease severity ([4]; 200 ppm) was 1.2, the Preventive value ([4]; 200 ppm) was 68 and the “The number of damaged fruits” value ([4]; 200 ppm) was 18. It also gave a Disease severity ([5]; 200 ppm) of 19, a Preventive value ([5]; 200 ppm) of 73 and a Preventive value ([6]; 50 ppm) of 55. The “Ratio of suffering leaves” value ([6]; 50 ppm) was 45, the “The number of suffering leaves” value ([6]; 50 ppm) was 9 and the Preventive value ([6]; 100 ppm) was 75. For the same compound, the “Ratio of suffering leaves” value ([6]; 100 ppm) was 25, the “The number of suffering leaves” value ([6]; 100 ppm) was 5 and the Preventive value ([6]; 400 ppm) was 85. The “Ratio of suffering leaves” value ([6]; 400 ppm) was 15, the “The number of suffering leaves” value ([6]; 400 ppm) was 3 and the Degree of damage (Celery cabbage soft rot; 200 ppm) was 6.4. The Preventive value (Celery cabbage soft rot; 200 ppm) was 71 and the “The number of individuals damaged” value (Celery cabbage soft rot; 200 ppm) was 12.
